Measurements reported in PMC9289467, “A Novel Multifunctional 5,6-Dimethoxy-Indanone-Chalcone-Carbamate Hybrids Alleviates Cognitive Decline in Alzheimer’s Disease by Dual Inhibition of Acetylcholinesterase and Inflammation” (Frontiers in Aging Neuroscience, 2022).

Key:
NeuN, MAP2 = assay: NeuN and MAP2 co-immunostaining and western blot, hippocampus; assay type: in vivo, APP/PS1 mice
Protocol: (§1) APP/PS1 mice of ages 6 months were randomly divided into vehicle (APP/PS1, n = 10) and treatment groups (AP5, n = 10), which were intragastrically administered with AP5 (40 mg/kg) once daily for consecutive 5 months. AP5 was dissolved in distilled water containing 1% sodium carboxymethyl cellulose.
(§2) The fixed hemibrains were paraffin-embedded and sectioned in the coronal plane. The slices were deparaffinized with xylene and rehydrated by a series of gradient alcohols. Antigen retrieval through microwave boiling was performed with 10 mM sodium citrate solution at pH 6.0. The slices were cooled down to room temperature and then rinsed in PBS solution. Then the slices were incubated in 10% goat serum blocking solution for 1 h followed by primary antibodies overnight at 4°C. The next day, the slides were labeled with biotinylated or fluorescent secondary antibodies. Slices were washed three times with PBS before being mounted. Images were captured using a SpinSR10 scanner (Olympus, Tokyo, Japan).
Frozen hippocampus and cortex were homogenized in pre-cooling RIPA buffer (P0013B, Beyotime) supplemented with 1 mM phenylmethanesulfonyl fluoride (PMSF) and cocktail of protease and phosphatase inhibitors. […] The membranes were incubated with 5% fat-free milk blocking solution for 1 h at room temperature and then probed with primary antibodies overnight at 4°C. […] Densitometric analysis was performed using Quantity One software (Bio-Rad, Berkeley, CA, United States).
(§3) Briefly, for ACh assay, the reactions were started by adding 100 µL of the Amplex Red reagent, HRP, choline oxidase, AChE working solution to each microplate well containing the controls and samples. […] Assay plates were incubated at room temperature for 30 min and protected from light, followed by detecting fluorescence of resorufin (λex = 544 nm, λem = 590 nm) in a fluorescence microplate reader. […]
(1:100, BAF2655, R&D, Minneapolis, MN, USA). […] For the quantification of Aβ plaque-associated microglia and […]

recognition memory = assay: Spatial object location task; assay type: in vivo; conditions: at 24 h, vs APP/PS1 mice without treatment
Protocol: as §1
To investigate whether AP5 treatment plays a key role in cognition improvement of APP/PS1 mice models, the five different behavioral tests were sequentially carried out in the following order: open field, novel object recognition task, spatial object-location task, Y-maze, and Morris water maze (MWM). AP5 was also administered daily during the test periods. […]
For the spatial object location task (an object moved to a new location), mice first explored the two objects placed in two corners of the open field for 5 min in training period. After 1 h or 24 h, the mice received a 5 min retention trial with a new spatial configuration with an object moved from one corner to the opposite corner of the open field.The discrimination index was calculated and defined as: (time spent exploring the displaced object-time spent exploring nondisplaced objects) / total exploration time for the two objects during the 5 min retention trial. […]
guided to platform and allowed to stay on it for 30 s. The time (escape latency) for each mouse to find the way and reach the target platform was analyzed. […]

GFAP positive astrocytes = assay: GFAP immunohistochemistry, Sholl analysis of astrocytes, APP/PS1 mice; assay type: in vivo; conditions: AP5 40 mg/kg once daily 5 months
Protocol: as §1
as §2, with “Japan). […]” for “Japan).”
After deparaffinization and antigen retrieval, the sections were incubated with 0.3% hydrogen peroxide (H2O2) to inhibit endogenous peroxidase activity for 20 min and blocked by goat serum for 30 min at37°C. Slides were subsequently incubated overnight with specific primary antibodies: anti-Iba1(1:100, ab178847, Abcam, Cambridge, UK) or anti-GFAP (1:100, bs-0199R, Bioss) at4 °C. […]

synaptophysin, PSD95 = assay: Synaptophysin and PSD95 co-immunofluorescence and western blot, hippocampus; assay type: in vivo, APP/PS1 mice
Protocol: as §1
The fixed hemibrains were paraffin-embedded and sectioned in the coronal plane. The slices were deparaffinized with xylene and rehydrated by a series of gradient alcohols. Antigen retrieval through microwave boiling was performed with 10 mM sodium citrate solution at pH 6.0. The slices were cooled down to room temperature and then rinsed in PBS solution. […]
Frozen hippocampus and cortex were homogenized in pre-cooling RIPA buffer (P0013B, Beyotime) supplemented with 1 mM phenylmethanesulfonyl fluoride (PMSF) and cocktail of protease and phosphatase inhibitors. […] Densitometric analysis was performed using Quantity One software (Bio-Rad, Berkeley, CA, United States).
as §3

[1] = hippocampal CA1 pyramidal layer

**Q.** `CCN(C)C(=O)Oc1cccc(/C=C2\Cc3cc(OC)c(OC)cc3C2=O)c1` [AP5, (E)-3-((5,6-dimethoxy-1-oxo-1,3-dihydro-2H-inden-2-ylidene)-methyl)phenylethyl(methyl)carbamate] was tested. Which MAP2 signals (NeuN, MAP2; [1]) did it give?
**A.** restored

**Q.** And the “average number of NeuN+ cells” value (NeuN, MAP2; [1])?
**A.** restored

**Q.** And the “protein expression of NeuN and MAP2” value (NeuN, MAP2; western blot, hippocampus)?
**A.** markedly increased

**Q.** And the “discrimination index, spatial object location” value (recognition memory)?
**A.** significantly better

**Q.** What about the “reactive phenotypes of astrocytes (ramification index, sum of intersects)” value (GFAP positive astrocytes) of the same molecule?
**A.** attenuated

**Q.** And the “pre-, post- and double-positive synaptic puncta (synapse damage)” value (synaptophysin, PSD95; synaptophysin and PSD95 co-immunofluorescence, hippocampus CA3)?
**A.** markedly recovered

**Q.** What about the “expression levels of synaptophysin and PSD95” value (synaptophysin, PSD95; western blot, hippocampus) of the same molecule?
**A.** more than that in the APP/PS1 mice
